Reference: PMC4744088 (Journal of biomolecular screening, 2015)

Assay: "true hits" assay alpha screen signal
Settings: indicates false positive

## Nc1c(S(=O)(=O)O)cc(Nc2ccc(Nc3nc(Cl)nc(Nc4cccc(S(=O)(=O)O)c4)n3)c(S(=O)(=O)O)c2)c2c1C(=O)c1ccccc1C2=O [Reactive blue 2]
  inhibition of the "true hits" assay alpha screen signal: greater than 50%
